Legend:
Botrytis cinerea = test: Grey mould in strawberry, pot trial, foliar treatment; assay type: in vivo; conditions: 250 OD at 450 g ai/ha, 3 applications, last assessment
Protocol: The compound of formula I 250 OD was tested at different doses, namely 400, 450 and 500 g ai/ha as depicted in the table below and compared to an untreated control as well as two reference products, SCALA (pyrimethanil 400 g/L) at 1000 g ai/ha and SIGNUM (boscalid+pyraclostrobin 26.7+[…]) at 600 g ai/ha.
Botrytis cinerea was artificial inoculated by spraying the inoculum on the leaves 3-4 days before the application.
To test for fungicidal control of Botrytis cinerea, the strawberry plants, grown in pots, were sprayed with each of the above treatments. 5 pots of 22 cm of diameter (the soil used for the trial is a mix of peat and perlite) with 1 plant each were used, 1 pot per replicate (each treatment is made of 4 replicates) was considered.
Each of the treatments was applied 3 times (ABC) according to the disease development as follows: A, early curative (before the disease symptoms appear; 3-4 days after the artificial inoculation), B, 7-10 days from A and C, to be evaluated in function of the disease development (7-10 days from B).
At the first symptoms the following parameters were assessed: • percentage of affected leaf area (% severity) • percentage of affected leaves (% incidence) • percentage of affected fruit area (% severity) • percentage of affected fruits (% incidence)

Honeybee [1] = test: Ecotoxicity: honeybee, chronic oral; assay type: in vivo
Description: (§1) The ecotoxicity of flumetylsulforim was investigated in numerous studies in accordance with the strict requirements for the approval of active substances in the EU.

Eisenia fetida = test: Ecotoxicity: earthworms, long-term; assay type: in vivo
Description: as §1

Phytophtora infestans = assay type: in vivo; conditions: potato; 150 g ai/ha vs CUPRIZOL S 330 g ai/ha
Bobwhite quail = test: Ecotoxicity: birds, reproduction; assay type: in vivo
Description: as §1

Honeybee [2] = test: Ecotoxicity: honeybee, acute contact; assay type: in vivo
Description: as §1

M. fijiensis = test: Black sigatoka on banana plants in climatic chamber; assay type: in vivo, Mycosphaerella fijiensis
Protocol: The banana plants used for this experimentation were obtained from vitro-plants Cavendish type furnished by VITROPIC S.A. (France). One-month old plants (2 fully deployed leaves: F2 (oldest leaf) and F1 and the cigar leaf) are treated (see details in the table below) were inoculated with a calibrated mycelial seed-inoculum of a mixture of 4 M. fijiensis strains (for each treatment, 3 repetitions (banana plants) are considered). Banana leaves of each plant were treated on their upper (adaxial) and lower (abaxial) face and then incubated for one hour under a laminar flow in order to let dry the fungicide droplets. After inoculation, banana plants were transferred in climatic chamber: 25° C. day/18° C. night, photoperiod of 16 h light/8 h dark and 100% Relative Humidity. From 28 days to 56 days post inoculation (dpi) each banana plants is observed and the disease intensity severity (DSI: Disease Severity Index) is evaluated over time in order to determine the AUDPC (Area Under Disease Progress Curve)—Table 12, and the fungicidal efficacy expressed in percent of the untreated control—Table 13.

Green alga = test: Ecotoxicity: algae, long-term; assay type: in vivo; conditions: wheats and barley at 2 × 100 g/ha
Description: as §1

[3] = Ecotoxicity: algae, long-term; assay type: in vivo; conditions: in vivo, Green alga
Description: as §1

Rat = test: Ecotoxicity: mammals, acute; assay type: in vivo
Description: as §1

Rabbit = test: Ecotoxicity: mammals, long-term; assay type: in vivo
Description: as §1

Honeybee [4] = test: Ecotoxicity: honeybee, acute oral; assay type: in vivo
Description: as §1

Honeybee [5] = test: Ecotoxicity: honeybee, chronic larvae; assay type: in vivo
Description: as §1

[6] = system: Erysiphe betae (powdery mildew); test: Greenhouse screening test, powdery mildew in sugar beet; assay type: in vivo; conditions: starting from 100 g ai/ha, applied one day after inoculation
Protocol: The screening test was conducted in a greenhouse in Gerichshain, Kupferstraße 6, Germany. The test was performed from application until 28 days after treatment. The efficacy and phytotoxic symptoms of compound of formula I to the plant species sugar beet were examined with a water control under greenhouse conditions. During the whole trial period the plants were stored at 12.6° C.-24.2° C. and 41.9-78.2% relative humidity.
The inoculation of the leaves was carried out. A spore suspension was produced. Infested leaves of sugar beets from a field were put in water for some minutes to get a spore suspension. For better homogeneity Tween 20 (Polysorbat) was added to the spore solution (0.1%). Two diseases were observed on the sampled leaves, Uromyces betae and Erysiphe betae, just E. betae infested the plants in this screening trial. […]
The application was carried out once one day after inoculation in an automatic application cabin at a spray volume equivalent to 200 L/ha. During the observation period of 28 days after treatment (DAT), the plants were assessed weekly for growth stage, leaf diseases and phytotoxicity. […]

[7] = wheats and barley at 2 × 100 g/ha

SMILES: Cc1ccc(S(=O)(=O)n2cc(F)c(=N)n(C)c2=O)cc1 [compound of formula I, 5-fluoro-4-imino-3-methyl-1-tosyl-3,4-dihydropyrimidin-2(1H)-one]
- control (fungicide efficacy on leaf severity) (Botrytis cinerea): more than 90%
- LD50 (Honeybee [1]): LD50 = 16.0 μg/bee/d
- NOEC (Eisenia fetida): NOEC = 309 mg/kg dws
- Risk at current use pattern (Eisenia fetida; [7]): Acceptable
- control versus reference treatment (Phytophtora infestans): significant better control than the reference treatment
- NOED (Bobwhite quail): NOED > 67.8 mg/kg bw/d
- Risk at current use pattern (Bobwhite quail; [7]): Acceptable
- LD50 (Honeybee [2]): LD50 > 50 μg/bee
- control of Mycosphaerella fijiensis in banana (conclusion) (M. fijiensis): efficiently controlling
- Risk at current use pattern (Green alga): Acceptable
- EC50 [3]: > 10 µg/mL
- LD50 (Rat): LD50 > 2000 mg/kg bw
- Risk at current use pattern (Rat; [7]): Acceptable
- NOED (Rabbit): NOED = 15 mg/kg bw/d
- Risk at current use pattern (Rabbit; [7]): Acceptable
- LD50 (Honeybee [4]): LD50 > 3.727 μg/bee
- NOEC (Honeybee [5]): NOEC > 250 mg/kg diet
- Risk at current use pattern (Honeybee [5]; [7]): Acceptable
- reduction of the affected leaf area compared to the UTC [6]: > 60%
